Read-outs that look alike come from different tables or passages of the source.
What was measured:
[1] = target: T1, human PDGF β receptor intracellular tyrosine kinase domain (Homo sapiens, UniProt P09619); experiment: PDGF receptor tyrosine kinase inhibition assay (P^32 incorporation in Glu-Tyr); format: biochemical; details: for IC50: Table 2, PDGF-R, IC50 entries, read-out: IC50 (PDGFR TK); for inhibition at 100 µM: read-out: % Inhibition at 100 μM (PDGFR TK)
T1 construct: human PDGF β receptor intracellular tyrosine kinase domain; made in house; host or cells: SF9 insect cells, recombinant baculovirus; cell lysates used
Method: Recombinant baculovirus containing human PDGF β receptor intracellular tyrosine kinase domain was used to infect SF9 cells to overexpress the protein, and cell lysates were used for the assay. The ability of the tyrosine kinase to phosphorylate glutamate tyrosine substrate in the presence of P^32 -ATP and inhibitor was measured by counting the incorporation of P^32 in Glu-Tyr in TCAprecipitable material.

[2] = system: Swiss 3T3 mouse fibroblasts; experiment: Growth inhibition assay, Swiss 3T3 fibroblasts; format: cell-based
Method: Swiss 3T3 mouse fibroblasts were maintained in dMEM/F12 media containing 10% fetal calf serum. […] The cells were grown at 37° C. under 5% CO2 for 72 hours and then counted by Coulter counter. The data were expressed as the concentration of inhibitor necessary to decrease the growth rate by 50%.

[3] = target: T2, epidermal growth factor receptor tyrosine kinase (Homo sapiens, UniProt P00533); experiment: EGF receptor tyrosine kinase assay (P^32 incorporation in GAT); format: biochemical; details: for inhibition at 100 µM: EGRF-R, read-out: % Inhibition at 100 μM (EGFR TK)
T2 construct: A native 170,000 epidermal growth factor receptor-kinase complex from shed plasma membrane vesicles; endogenous in cells
Method in brief: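 Receptor pre-activated with 150 ng EGF for 10 min at room temperature. ATP with or without compound then added and incubated 10 min at room temperature.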

Swiss 3T3 fibroblasts = experiment: Growth factor mediated mitogenesis (tritiated thymidine incorporation); format: cell-based; details: Mus musculus, Swiss-3T3, 24 h
Method: Swiss 3T3 fibroblasts, that were growth arrested in serum-free media for 24 hours, were exposed to various concentrations of compound for 2 hours. The cells were then exposed to individual growth factors for 24 hours and mitogenesis assessed by measuring tritiated thymidine incorporation into DNA.
The concentration of 21 and 70 required to inhibit growth factor mediated mitogenesis by 50% for the following growth factors was as follows: […]

[4] = system: bFGF mediated tyrosine phosphorylation; experiment: bFGF mediated tyrosine phosphorylation, Western blot; format: cell-based, mouse; details: Swiss 3T3, as low as 2 mM
Method: Swiss 3T3 fibroblasts, that were growth arrested in serum-free media for 24 hours, were exposed to various concentrations of compound for 2 hours. The cells were then exposed to individual growth factors for 5 minutes and proteins that were phosphorylated on tyrosine in response to the mitogens and were detected by Western blotting techniques using phosphotryosine antibodies. Similar techniques were used for tumor cell lines except the time in serum-free media was increased.

[5] = Swiss 3T3, 72 hours, Table 2, read-out: IC50 growth inhibition
[6] = Table 2, EGRF-R, IC50 entries, read-out: IC50 (EGFR TK)
[7] = Swiss-3T3, 72 h, read-out: IC50 growth inhibition

T1 sequence (P09619 554-1106 limits assumed): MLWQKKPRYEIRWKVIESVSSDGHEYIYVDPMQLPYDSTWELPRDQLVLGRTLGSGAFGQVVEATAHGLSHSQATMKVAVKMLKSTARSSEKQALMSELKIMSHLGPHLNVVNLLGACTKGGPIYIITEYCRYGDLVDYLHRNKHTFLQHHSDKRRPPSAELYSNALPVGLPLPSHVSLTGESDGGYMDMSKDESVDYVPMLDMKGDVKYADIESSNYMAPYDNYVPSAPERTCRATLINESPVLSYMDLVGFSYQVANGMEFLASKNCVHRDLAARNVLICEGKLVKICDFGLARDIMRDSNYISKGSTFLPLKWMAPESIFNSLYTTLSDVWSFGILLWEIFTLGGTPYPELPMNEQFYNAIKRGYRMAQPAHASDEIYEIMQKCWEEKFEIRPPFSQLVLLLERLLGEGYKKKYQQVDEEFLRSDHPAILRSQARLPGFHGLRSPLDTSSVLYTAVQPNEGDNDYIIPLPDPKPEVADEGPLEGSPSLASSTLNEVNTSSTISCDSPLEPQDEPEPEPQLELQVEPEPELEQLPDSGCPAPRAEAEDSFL
T2 sequence (P00533 25-1210): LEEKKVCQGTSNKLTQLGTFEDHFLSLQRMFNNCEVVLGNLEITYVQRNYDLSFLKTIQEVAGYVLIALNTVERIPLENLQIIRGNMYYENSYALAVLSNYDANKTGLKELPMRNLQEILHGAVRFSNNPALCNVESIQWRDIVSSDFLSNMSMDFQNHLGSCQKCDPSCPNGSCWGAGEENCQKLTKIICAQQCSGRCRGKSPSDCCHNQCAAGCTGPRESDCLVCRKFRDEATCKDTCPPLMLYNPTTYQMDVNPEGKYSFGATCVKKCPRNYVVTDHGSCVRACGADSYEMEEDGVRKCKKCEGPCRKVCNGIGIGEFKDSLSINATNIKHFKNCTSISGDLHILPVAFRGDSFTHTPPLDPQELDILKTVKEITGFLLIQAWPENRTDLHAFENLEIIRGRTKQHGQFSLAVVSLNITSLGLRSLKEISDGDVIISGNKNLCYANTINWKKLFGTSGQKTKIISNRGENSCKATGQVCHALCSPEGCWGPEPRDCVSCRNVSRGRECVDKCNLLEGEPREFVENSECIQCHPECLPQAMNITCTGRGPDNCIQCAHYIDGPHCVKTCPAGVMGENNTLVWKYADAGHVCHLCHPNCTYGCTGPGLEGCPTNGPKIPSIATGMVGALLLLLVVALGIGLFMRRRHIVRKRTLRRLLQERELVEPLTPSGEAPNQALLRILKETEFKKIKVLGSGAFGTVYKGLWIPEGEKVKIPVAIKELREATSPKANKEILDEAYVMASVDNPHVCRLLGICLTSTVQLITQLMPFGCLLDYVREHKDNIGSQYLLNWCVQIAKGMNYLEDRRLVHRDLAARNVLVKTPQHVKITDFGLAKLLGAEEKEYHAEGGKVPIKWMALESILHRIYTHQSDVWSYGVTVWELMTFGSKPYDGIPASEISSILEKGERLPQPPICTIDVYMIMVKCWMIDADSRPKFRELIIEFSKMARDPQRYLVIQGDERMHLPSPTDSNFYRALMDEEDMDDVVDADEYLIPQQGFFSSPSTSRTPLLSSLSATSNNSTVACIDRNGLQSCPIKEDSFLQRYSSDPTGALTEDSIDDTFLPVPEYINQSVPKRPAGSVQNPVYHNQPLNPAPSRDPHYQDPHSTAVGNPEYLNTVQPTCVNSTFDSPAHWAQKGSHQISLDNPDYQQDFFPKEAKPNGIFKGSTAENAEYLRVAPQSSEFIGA
T2 sequence (P01133 971-1023 partner limits assumed): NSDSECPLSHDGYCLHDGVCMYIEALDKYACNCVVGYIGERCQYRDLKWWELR

Structure (SMILES)	IC50 [2, 5]	IC50 [3, 6]	inhibition at 100 µM ([1]; at 100 μM, PDGF-R)	also measured
CNC(=O)c1c(SSc2c(C(=O)NC)c3ccccc3n2C)n(C)c2ccccc12 [Compound 97, bis[N-methyl 1-methylindolyl-3-carboxamide-(2)]disulfide]	1.8 µM	10.1 µM		IC50 [1]: 28.1 µM
NC(Cc1c(SSc2[nH]c3ccccc3c2CC(N)C(=O)NCc2ccccc2)[nH]c2ccccc12)C(=O)NCc1ccccc1 (racemic) [Compound 62, 2,2'-dithiobis[α-amino-N-benzyl-3-(3-indolyl)propanamide]]		6 µM	71%	IC50 [2, 7]: 5.3 µM
COc1ccc2c(C(=O)Nc3ccccc3)c(SSc3c(C(=O)Nc4ccccc4)c4ccc(OC)cc4n3C)n(C)c2c1 [Compound 81, bis[N-phenyl 6-methoxy-1-methylindolyl-3-carboxamide-(2)]disulfide]	17 µM	3.6 µM	2%	
CCn1c(SSc2c(C(=O)Nc3ccccc3)c3ccccc3n2CC)c(C(=O)Nc2ccccc2)c2ccccc21 [Compound 71, bis[N-phenyl 1-ethylindolyl-3-carboxamide-(2)]disulfide]				inhibition at 100 µM [1]: 5%; IC50 [2, 7]: 52 µM; inhibition at 100 µM [3]: 20%
COc1cccc2c(C(=O)Nc3ccccc3)c(SSc3c(C(=O)Nc4ccccc4)c4cccc(OC)c4n3C)n(C)c12 [Compound 82, bis[N-phenyl 7-methoxy-1-methylindolyl-3-carboxamide-(2)]disulfide]	24 µM	6.5 µM		
Cc1cccc2c1c(C(=O)Nc1ccccc1)c(SSc1c(C(=O)Nc3ccccc3)c3c(C)cccc3n1C)n2C [Compound 75, bis[N-phenyl 1,4-dimethylindolyl-3-carboxamide-(2)]disulfide]	4 µM		3%	inhibition at 100 µM [3]: 6%
Cc1ccc2c(c1)c(C(=O)Nc1ccccc1)c(SSc1c(C(=O)Nc3ccccc3)c3cc(C)ccc3n1C)n2C [Compound 76, bis [N-phenyl 1,5-dimethylindolyl-3-carboxamide-(2)] disulfide]	22 µM		19%	inhibition at 100 µM [3]: 7%
O=C(O)Cc1c(SSSc2[nH]c3ccccc3c2CC(=O)O)[nH]c2ccccc12 [Compound 30, bis[indolyl-3-acetic acid-(2)]trisulfide]	8 µM	9.3 µM		
CCOC(=O)CCc1c(SSc2[nH]c3cc(C)ccc3c2CCC(=O)OCC)[nH]c2cc(C)ccc12 [Compound 44, bis[ethyl 6-methylindolyl-3-propanoate-(2)] disulfide]	2.4 µM		5%	inhibition at 100 µM [3]: 16.6%
O=C(O)CCC1C(=S)Nc2ccccc21 (stereo not shown) [Compound 7, 3-(2-thioxo-3-indolinyl)propanoic acid]	94 µM	1.3 µM		
Cc1ccc(S(=O)(=O)c2c(SSc3[nH]c4ccccc4c3S(=O)(=O)c3ccc(C)cc3)[nH]c3ccccc23)cc1 [Compound 99, bis[3-(4-methylphenylsulfonyl)-2-indolyl]disulfide]		40 µM	19%	IC50 [2, 7]: 2.8 µM
Cn1c(SSc2c(CC(=O)O)c3ccccc3n2C)c(CC(=O)O)c2ccccc21 [Compound 32, bis[1-methylindolyl-3-acetic acid-(2)]-disulfide]	36 µM	34.5 µM	4.7%	
COC(=O)CCc1c(SSc2c(CCC(=O)OC)c3ccccc3n2C)n(C)c2ccccc12 [Compound 40, 2,2'-dithiobis[methyl 3-(1-methyl-3-indolyl)propanoate]]	5.2 µM			inhibition at 100 µM [3]: 16.3%
O=C(CCc1c(SSc2[nH]c3ccccc3c2CCC(=O)NCc2ccccc2)[nH]c2ccccc12)NCc1ccccc1 [Compound 47]	6 µM	0.85 µM		
CN(C)CCNC(=O)c1c(SSc2c(C(=O)NCCN(C)C)c3ccccc3n2C)n(C)c2ccccc12 [Compound 115, 2,2'-dithiobis [N-(N,N-dimethylaminoethyl) 1-methylindolyl-3-carboxamide]]	> 50 µM	26 µM		IC50 [1]: 19.7 µM
Cn1c(SSc2c(C(=O)Nc3ccccc3)c3ccccc3n2C)c(C(=O)Nc2ccccc2)c2ccccc21 [Compound 70, bis [N-phenyl 1-methylindolyl-3-carboxamide-(2)] disulfide]	12 µM	8.6 µM	1%	IC50 (Swiss 3T3 fibroblasts; EGF): 3 µM; IC50 (Swiss 3T3 fibroblasts; PDGF): 4 µM; IC50 (Swiss 3T3 fibroblasts; bFGF): 3 µM; IC50 (Swiss 3T3 fibroblasts; serum): 3 µM; inhibition of bFGF mediated tyrosine phosphorylation (selectivity over EGF and PDGF) [4]: more selective and inhibited only bFGF mediated tyrosine phosphorylation
CNC(=O)c1c([Se][Se]c2c(C(=O)NC)c3ccccc3n2C)n(C)c2ccccc12 [Compound 131, 2,2'-diselenobis [N,1-dimethyl-1H -indole-3-carboxamide]]				IC50 [2, 7]: 5.5 µM; IC50 [3]: 5.8 µM
Cn1c(SSc2c(C(=O)NCc3ccccc3)c3ccccc3n2C)c(C(=O)NCc2ccccc2)c2ccccc21 [Compound 98, bis[N-benzyl 1-methylindolyl-3-carboxamide-(2)]disulfide]	5 to 12 µM	1.5 µM	9%	
COc1cccc2c1c(C(=O)Nc1ccccc1)c(SSc1c(C(=O)Nc3ccccc3)c3c(OC)cccc3n1C)n2C [Compound 79, bis [N-phenyl 4-methoxy-1-methyl indolyl-3-carboxamide-(2)]disulfide]	1.9 µM		20%	inhibition at 100 µM [3]: 11%
CNC(=O)c1c([Se][Se]c2[nH]c3ccccc3c2C(=O)NC)[nH]c2ccccc12 [Compound 133, 2,2'-diselenobis[N-methyl-1H-indole-3-carboxamide]]				IC50 [2, 7]: < 5 µM; IC50 ([3]; read-out: IC50 (EGFR TK)): 13 µM
Cc1ccc2[nH]c(SSc3[nH]c4ccc(C)cc4c3CCC(=O)O)c(CCC(=O)O)c2c1 [Compound 41, bis[5-methylindolyl-3-propanoic acid-(2)]disulfide]	> 25 µM	8.4 µM		
COC(=O)Cc1c(SSc2[nH]c3ccccc3c2CC(=O)OC)[nH]c2ccccc12 [Compound 27, bis[methylindolyl-3-acetate-(2)]disulfide]	2.3 µM	17.8 µM		
CCOC(=O)CCc1c(SSc2[nH]c3ccccc3c2CCC(=O)OCC)[nH]c2ccccc12 [Compound 38, bis[ethylindolyl-3-propanoate-(2)] disulfide]	1.6 µM			inhibition at 100 µM [3]: 36.5%
Cn1c(SSc2c(C(=O)Nc3ccccc3)c3cc(Cl)ccc3n2C)c(C(=O)Nc2ccccc2)c2cc(Cl)ccc21 [Compound 73, bis[N-phenyl 5-chloro-1-methylindolyl-3-carboxamide-(2)]disulfide]	9.3 µM	4.3 µM	21%	
COC(=O)CCC1C(=S)Nc2ccccc21 (stereo not shown) [Compound 9, methyl 3-(2-thioxo-3-indolinyl)propanoate]	16 µM			inhibition at 100 µM [3]: 52%
O=C(O)CCc1c(SSc2[nH]c3ccccc3c2CCC(=O)O)[nH]c2ccccc12 [Compound 36, bis[indolyl-3-propanoic acid-(2)]disulfide]	59 µM	4.8 µM		
O=C(Cc1c(SSc2[nH]c3ccccc3c2CC(=O)NCc2ccccc2)[nH]c2ccccc12)NCc1ccccc1 [Compound 34, 2,2'-dithiobis[N-benzyl 2-(3-indolyl)acetamide]]	2.7 µM	38 µM	12.8%	
CCOC(=O)Cc1c(SSc2c(CC(=O)OCC)c3ccccc3n2C)n(C)c2ccccc12 [Compound 33, bis[ethyl 1-methylindolyl-3-acetate-(2)]disulfide]		39 µM	16.7%	IC50 [2, 7]: 3 µM
Cn1c(SSc2c(C(=O)Nc3ccccc3)c3cccnc3n2C)c(C(=O)Nc2ccccc2)c2cccnc21 [Compound 83, 2,2'-dithiobis [N-phenyl-1-methyl-7-azaindolyl-3-carboxamide]]	10 µM	22.3 µM	57%	
O=C(O)Cc1c(SSc2[nH]c3ccccc3c2CC(=O)O)[nH]c2ccccc12 [Compound 29, bis[indolyl-3-acetic acid-(2)] disulfide]	25 to 100 µM	8.3 µM		
